Measurements as given in ChEMBL document CHEMBL5537119 (Eur J Med Chem, 2024).

Key:
[1] = biological target: T1, Histone deacetylase 7 (Homo sapiens, UniProt Q8WUI4); experiment: Inhibition of HDAC7 (unknown origin)
T1 sequence (Q8WUI4 whole entry): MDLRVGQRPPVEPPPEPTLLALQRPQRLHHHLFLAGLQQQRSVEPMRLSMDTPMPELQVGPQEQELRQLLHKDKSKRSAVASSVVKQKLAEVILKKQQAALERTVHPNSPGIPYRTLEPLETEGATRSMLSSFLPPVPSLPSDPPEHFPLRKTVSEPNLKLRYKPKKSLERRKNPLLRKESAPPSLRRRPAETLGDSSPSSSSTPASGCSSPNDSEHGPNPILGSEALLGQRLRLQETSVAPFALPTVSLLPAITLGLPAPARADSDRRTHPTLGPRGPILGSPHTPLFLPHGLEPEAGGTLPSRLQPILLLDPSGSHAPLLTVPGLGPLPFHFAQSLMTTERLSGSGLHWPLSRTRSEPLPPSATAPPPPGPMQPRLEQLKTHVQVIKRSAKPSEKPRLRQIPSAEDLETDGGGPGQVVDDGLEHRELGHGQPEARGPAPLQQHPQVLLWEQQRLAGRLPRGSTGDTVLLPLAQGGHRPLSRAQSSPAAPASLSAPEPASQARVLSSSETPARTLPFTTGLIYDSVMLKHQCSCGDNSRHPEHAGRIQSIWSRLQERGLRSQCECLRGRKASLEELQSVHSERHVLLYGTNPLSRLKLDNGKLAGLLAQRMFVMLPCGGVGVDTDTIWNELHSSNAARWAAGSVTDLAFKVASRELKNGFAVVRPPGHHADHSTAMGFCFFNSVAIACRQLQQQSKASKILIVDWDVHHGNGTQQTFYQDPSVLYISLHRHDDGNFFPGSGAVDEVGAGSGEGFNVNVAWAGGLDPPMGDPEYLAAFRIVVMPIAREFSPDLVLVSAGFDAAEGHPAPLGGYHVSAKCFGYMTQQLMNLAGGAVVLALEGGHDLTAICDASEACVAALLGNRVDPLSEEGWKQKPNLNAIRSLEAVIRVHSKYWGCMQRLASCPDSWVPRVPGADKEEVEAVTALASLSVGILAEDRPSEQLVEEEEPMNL

[2] = biological target: Histone deacetylase 1 (Homo sapiens, UniProt Q13547); experiment: Inhibition of HDAC1 (unknown origin)
Histone deacetylase 1, sequence (Q13547 whole entry): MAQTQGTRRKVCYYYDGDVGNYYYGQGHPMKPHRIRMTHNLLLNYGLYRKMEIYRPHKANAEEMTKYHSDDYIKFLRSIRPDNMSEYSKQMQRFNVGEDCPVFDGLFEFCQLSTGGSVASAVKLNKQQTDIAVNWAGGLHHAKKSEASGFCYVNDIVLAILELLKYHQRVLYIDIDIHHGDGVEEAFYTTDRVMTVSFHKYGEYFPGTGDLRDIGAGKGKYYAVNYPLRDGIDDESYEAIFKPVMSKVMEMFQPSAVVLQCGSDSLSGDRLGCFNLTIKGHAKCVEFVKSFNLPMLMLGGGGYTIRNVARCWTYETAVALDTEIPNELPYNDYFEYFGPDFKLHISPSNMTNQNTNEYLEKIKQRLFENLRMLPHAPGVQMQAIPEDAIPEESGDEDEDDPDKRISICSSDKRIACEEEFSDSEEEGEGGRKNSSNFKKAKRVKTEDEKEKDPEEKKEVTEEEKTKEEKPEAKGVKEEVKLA

[3] = Inhibition of Class IIa/8 HDAC in human THP-1 cells preincubated for 18 hrs followed by substrate addition and measured after 3 hrs by fluorescence based microplate reader assay; type: cell-based
[4] = biological target: Histone deacetylase 2 (Homo sapiens, UniProt Q92769); experiment: Inhibition of human recombinant HDAC2 using Boc-Lys(Ac)-AMC as substrate preincubated for 5 mins followed by substrate addition and measured after 90 mins by fluorescence based microplate reader analysis
Histone deacetylase 2, sequence (Q92769 whole entry): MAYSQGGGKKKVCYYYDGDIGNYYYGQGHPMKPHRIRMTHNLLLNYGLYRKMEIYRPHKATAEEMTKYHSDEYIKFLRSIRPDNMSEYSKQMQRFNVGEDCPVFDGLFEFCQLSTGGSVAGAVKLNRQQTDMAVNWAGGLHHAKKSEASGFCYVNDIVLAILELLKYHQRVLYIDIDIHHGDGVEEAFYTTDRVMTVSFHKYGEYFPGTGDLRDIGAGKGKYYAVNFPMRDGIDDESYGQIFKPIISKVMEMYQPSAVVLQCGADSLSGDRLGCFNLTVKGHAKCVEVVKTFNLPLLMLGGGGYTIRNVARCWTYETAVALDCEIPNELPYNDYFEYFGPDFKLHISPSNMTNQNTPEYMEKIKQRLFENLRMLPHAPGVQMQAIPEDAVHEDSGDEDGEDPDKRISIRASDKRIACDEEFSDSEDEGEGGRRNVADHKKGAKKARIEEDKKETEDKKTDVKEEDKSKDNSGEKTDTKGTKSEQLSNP

[5] = tested on: THP-1; experiment: Antiproliferative activity against human THP-1 cells assessed as reduction in cell viability at 100 uM incubated for 72 hrs by MTT assay relative to control; type: functional
[6] = tested on: THP-1; experiment: Inhibition of Class IIa/8 HDAC in human THP-1 cells at 100 uM preincubated for 18 hrs followed by substrate addition and measured after 3 hrs by fluorescence based microplate reader assay relative to control; type: cell-based; settings: time 21.0 hrs, values are per cent of control
[7] = tested on: THP-1; experiment: Inhibition of Class I/IIb HDAC in human THP-1 cells at 100 uM preincubated for 18 hrs followed by substrate addition and measured after 3 hrs by fluorescence based microplate reader assay relative to control; type: cell-based; settings: time 21.0 hrs
[8] = Inhibition of Class I/IIb HDAC in human THP-1 cells preincubated for 18 hrs followed by substrate addition and measured after 3 hrs by fluorescence based microplate reader assay; type: cell-based
[9] = biological target: Histone deacetylase 3 (Homo sapiens, UniProt O15379); experiment: Inhibition of HDAC3 (unknown origin)
Histone deacetylase 3, sequence (O15379 whole entry): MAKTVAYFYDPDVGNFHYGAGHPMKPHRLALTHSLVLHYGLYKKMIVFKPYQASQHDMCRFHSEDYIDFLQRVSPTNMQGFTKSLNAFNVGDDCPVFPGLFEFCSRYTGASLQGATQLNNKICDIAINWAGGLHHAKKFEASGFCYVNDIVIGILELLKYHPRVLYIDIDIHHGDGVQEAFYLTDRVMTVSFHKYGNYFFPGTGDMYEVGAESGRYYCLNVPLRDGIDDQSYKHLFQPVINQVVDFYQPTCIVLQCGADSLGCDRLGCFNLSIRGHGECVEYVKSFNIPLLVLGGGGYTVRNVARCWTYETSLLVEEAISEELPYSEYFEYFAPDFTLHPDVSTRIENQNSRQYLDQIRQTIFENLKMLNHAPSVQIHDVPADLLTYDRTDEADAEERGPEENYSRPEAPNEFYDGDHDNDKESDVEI

[10] = biological target: T2, Histone deacetylase 11 (Homo sapiens, UniProt Q96DB2); experiment: Inhibition of HDAC11 (unknown origin)
T2 sequence (Q96DB2 whole entry): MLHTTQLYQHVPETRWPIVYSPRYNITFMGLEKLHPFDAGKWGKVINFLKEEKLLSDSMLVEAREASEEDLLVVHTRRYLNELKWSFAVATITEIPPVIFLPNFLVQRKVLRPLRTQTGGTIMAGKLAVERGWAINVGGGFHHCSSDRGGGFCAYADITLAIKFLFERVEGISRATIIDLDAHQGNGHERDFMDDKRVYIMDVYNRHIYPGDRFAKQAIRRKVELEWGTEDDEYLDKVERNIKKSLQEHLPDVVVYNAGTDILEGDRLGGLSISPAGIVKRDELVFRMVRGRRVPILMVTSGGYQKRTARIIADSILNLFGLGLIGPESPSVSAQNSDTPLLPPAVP

[11] = biological target: T3, Histone deacetylase 8 (Homo sapiens, UniProt Q9BY41); experiment: Inhibition of human recombinant HDAC8 using Boc-Lys-(Tfa)-AMC as substrate preincubated for 5 mins followed by substrate addition and measured after 90 mins by fluorescence based microplate reader analysis
T3 sequence (Q9BY41 whole entry): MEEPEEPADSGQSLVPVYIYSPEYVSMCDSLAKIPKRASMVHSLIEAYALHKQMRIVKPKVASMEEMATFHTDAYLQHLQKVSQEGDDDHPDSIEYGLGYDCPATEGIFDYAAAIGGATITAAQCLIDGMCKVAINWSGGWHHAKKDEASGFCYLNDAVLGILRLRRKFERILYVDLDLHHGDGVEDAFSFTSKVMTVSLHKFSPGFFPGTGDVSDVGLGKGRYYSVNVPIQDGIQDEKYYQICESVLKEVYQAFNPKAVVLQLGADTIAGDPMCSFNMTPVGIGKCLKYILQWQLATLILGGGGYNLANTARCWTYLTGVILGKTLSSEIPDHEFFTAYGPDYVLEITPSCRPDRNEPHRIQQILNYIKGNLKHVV

[12] = biological target: Histone deacetylase 4 (Homo sapiens, UniProt P56524); experiment: Inhibition of human recombinant TEV-8His-tagged HDAC4 (648 to 1057 residues) expressed in Escherichia coli (DE3) Rosetta cells using Boc-Lys-(Tfa)-AMC as substrate preincubated for 5 mins followed by substrate addition and measured after 90 mins by fluorescence based microplate reader analysis
Histone deacetylase 4, sequence (P56524 whole entry, the tested form may be a part): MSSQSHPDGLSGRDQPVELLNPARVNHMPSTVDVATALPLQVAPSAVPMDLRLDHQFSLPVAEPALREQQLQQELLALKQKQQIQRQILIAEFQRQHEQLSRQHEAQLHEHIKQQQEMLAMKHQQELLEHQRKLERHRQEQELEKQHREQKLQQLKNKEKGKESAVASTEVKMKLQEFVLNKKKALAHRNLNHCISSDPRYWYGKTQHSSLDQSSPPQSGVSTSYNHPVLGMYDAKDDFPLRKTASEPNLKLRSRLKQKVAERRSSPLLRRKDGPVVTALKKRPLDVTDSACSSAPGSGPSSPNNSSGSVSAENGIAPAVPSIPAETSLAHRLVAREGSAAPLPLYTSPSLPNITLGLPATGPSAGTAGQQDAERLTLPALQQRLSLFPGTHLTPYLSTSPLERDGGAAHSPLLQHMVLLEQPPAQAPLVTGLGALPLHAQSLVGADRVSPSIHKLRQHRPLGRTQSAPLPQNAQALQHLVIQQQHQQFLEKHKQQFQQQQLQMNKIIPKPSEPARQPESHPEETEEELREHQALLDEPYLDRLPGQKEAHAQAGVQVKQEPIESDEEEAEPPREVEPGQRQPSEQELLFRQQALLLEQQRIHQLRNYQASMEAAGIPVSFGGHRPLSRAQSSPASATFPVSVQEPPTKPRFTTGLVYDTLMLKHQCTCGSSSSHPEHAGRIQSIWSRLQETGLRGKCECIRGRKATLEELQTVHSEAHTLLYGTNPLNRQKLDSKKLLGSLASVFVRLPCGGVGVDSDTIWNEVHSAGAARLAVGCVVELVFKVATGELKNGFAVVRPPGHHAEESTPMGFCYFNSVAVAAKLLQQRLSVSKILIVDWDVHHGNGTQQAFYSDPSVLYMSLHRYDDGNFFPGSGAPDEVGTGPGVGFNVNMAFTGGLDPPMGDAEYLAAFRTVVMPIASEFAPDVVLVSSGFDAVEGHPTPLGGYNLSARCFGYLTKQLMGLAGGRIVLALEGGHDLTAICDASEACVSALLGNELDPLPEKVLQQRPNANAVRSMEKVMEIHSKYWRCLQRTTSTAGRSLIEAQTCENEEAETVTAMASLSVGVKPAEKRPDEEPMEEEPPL

IC50 [1]: 1.97 µM
IC50 [2]: > 100 µM
IC50 [3]: 38.1 µM
IC50 [4]: > 100 µM
IC50 [8]: > 100 µM
IC50 [9]: > 100 µM
IC50 [10]: > 100 µM
IC50 [11]: > 100 µM
IC50 [12]: 0.118 µM
Structure (SMILES): O=C(NOCc1coc(-c2ccccc2)n1)c1ccc(-c2noc(C(F)(F)F)n2)cc1
Activity [5]: 47%
residual activity [6]: 76%
inhibition [7]: 0%
